Laboratory results reported in US9458181B2, “Cathepsin cysteine protease inhibitors” (Merck Sharp & Dohme Corp., priority 2013, dated 2016).

How the values were obtained:
human cathepsin F = biological target: T1, human cathepsin F (Homo sapiens, UniProt Q9UBX1); assay: Cathepsin F assay (hCat F); type: biochemical; settings: human cathepsin F 10 nM, Z-Phe-Arg-AMC 8 μM, pH 5.5, 15 min preincubation; read-out: hCat F IP
T1 sequence (Q9UBX1 271-484): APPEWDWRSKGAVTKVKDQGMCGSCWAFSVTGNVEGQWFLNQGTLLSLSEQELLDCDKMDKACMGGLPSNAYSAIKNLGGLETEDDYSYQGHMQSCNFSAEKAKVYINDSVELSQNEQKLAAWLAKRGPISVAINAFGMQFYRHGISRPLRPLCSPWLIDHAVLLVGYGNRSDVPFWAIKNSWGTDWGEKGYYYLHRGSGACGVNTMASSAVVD
Experimental: Cathepsin F assay (hCat F)
(§1) Serial dilutions (⅓) from 500 μM down to 0.025 μM of test compounds were prepared in dimethyl sulfoxide (DMSO). Then 0.5 μL of DMSO from each dilution were added to 18.75 μL of assay buffer (MES, 50 mM (pH 5.5); EDTA, 2.5 mM; DTT, 2.5 mM and 10% DMSO) containing human cathepsin F (10 nM) in assay buffer solution. The assay solutions were mixed for 5-10 seconds on a shaker plate and incubated for 15 minutes at room temperature. Z-Phe-Arg-AMC (8 μM) in 6.25 μL of assay buffer was added to the assay solutions. Hydrolysis of the coumarin leaving group (AMC) was followed by spectrofluorometry (Exp, =360 nm; EmX=460 nm) for 20 minutes. Percent of inhibition were calculated by fitting experimental values to standard mathematical model for dose response curve.

human cathepsin K = human cathepsin K (UniProt P43236); assay: Cathepsin K Assay (hrbCat K); type: biochemical; settings: human cathepsin K 0.4 nM, Z-Leu-Arg-AMC 8 μM, pH 5.5, 15 min preincubation; read-out: hrbCat K IP
Experimental: Cathepsin K Assay (hrbCat K)
as §1, with “K (0.4” for “F (10”, “Z-Leu-Arg-AMC” for “Z-Phe-Arg-AMC”, “(Exλ=360” for “(Exp, =360”, “Emλ=460” for “EmX=460”, “30” for “20”

SMILES | IC50 (human cathepsin F) [nM] | IC50 (human cathepsin K) [nM]
CC(C#N)NC(=O)[C@@H]1CCCC[C@H]1c1oc(-c2ccc(F)cc2)nc1-c1ccc(N2CCS(=O)(=O)CC2)cc1 (single isomer, unassigned) [Example 122, (1R,2R)-N-((S or R)-1-cyanoethyl)-2-(4-(4-(1,1-dioxidothiomorpholino)phenyl)-2-(4-fluorophenyl)oxazol-5-yl)cyclohexanecarboxamide] | 198 | 0.8
CS(=O)(=O)N1CCN(C(=O)c2ccc(-c3nc(-c4ccc(F)cc4F)oc3[C@@H]3CCCC[C@H]3C(=O)NC3(C#N)CC3)cc2)CC1 [Example 129, (1R,2R)-N-(1-cyanocyclopropyl)-2-(2-(2,4-difluorophenyl)-4-(4-(4-(mcthylsulfonyl)piperazine-1-carbonyl)phenyl)oxazol-5-yl)cyclohexanecarboxamide] | 3930 | 9.12
CS(=O)(=O)C1CN(c2ccc(-c3nc(C(F)(F)C(F)(F)F)oc3[C@@H]3CCCC[C@H]3C(=O)NC3(C#N)CC3)cc2)C1 [Example 23, (1R,2R)-N-(1-cyanocyclopropyl)-2-(4-(4-(3-(methylsulfonyl)azetidin-1-yl)phenyl)-2-(perfluoroethyl)oxazol-5-yl)cyclohexanecarboxamide] | 383 | 0.62
C[C@@H](C#N)NC(=O)[C@@H]1CCCC[C@H]1c1oc(-c2ccc(F)cc2)nc1-c1ccc(N2CC[S+]([O-])CC2)cc1 [Example 141, (1R,2R)-N-((S)-1-cyanoethyl)-2-(2-(4-fluorophenyl)-4-(4-(1-oxidothiomorpholino)phenyl)oxazol-5-yl)cyclohexanecarboxamide] | 167 | 0.9
N#CC1(NC(=O)[C@@H]2CCCC[C@H]2c2oc(-c3ccc(C(F)(F)F)cn3)nc2-c2ccc(N3CCS(=O)(=O)CC3)cc2)CC1 [Example 81, (1R,2R)-N-(1-cyanocyclopropyl)-2-(4-(4-(1,1-dioxidothiomorpholino)phenyl)-2-(5-(trifluoromethyl)pyridin-2-yl)oxazol-5-yl)cyclohexanecarboxamide] | 3060 | 2.99
N#CC1(NC(=O)[C@@H]2CCCC[C@H]2c2oc(-c3ccc(F)cc3)nc2-c2ccc(N3CC[S+]([O-])CC3)cc2)CC1 [Example 135, (1R,2R)-N-(1-cyanocyclopropyl)-2-(2-(4-fluorophenyl)-4-(4-(1-oxidothiomorpholino)phenyl)oxazol-5-yl)cyclohexanecarboxamide] | 458 | 1.39
N#CC1(NC(=O)[C@@H]2CCCC[C@H]2c2oc(CC3CCCCC3)nc2-c2ccc(N3CCS(=O)(=O)CC3)cc2)CC1 [Example 51, (1R,2R)-N-(1-cyanocyclopropyl)-2-(2-(cyclohexylmethyl)-4-(4-(1,1-dioxidothiomorpholino)phenyl)oxazol-5-yl)cyclohcxanecarboxamide] | 400 | 1.69
N#CC1(NC(=O)[C@@H]2CCCC[C@H]2c2oc(-c3ccc(F)cc3)nc2-c2ccc(N3CC4CC3CS4(=O)=O)cc2)CC1 (mixture of isomers) [Example 87, (1R,2R)-N-(1-cyanocyclopropyl)-2-(4-(4-((1R,4R and 1S,4S)-2,2-dioxido-2-thia-5-azabicyclo[2.2.1]heptan-5-yl)phenyl)-2-(4-fluorophenyl)oxazol-5-yl)cyclohexanecarboxamide] | 1220 | 4.09
N#CC1(NC(=O)[C@@H]2CCCC[C@H]2c2oc(-c3cccc(C(F)(F)F)c3)nc2-c2ccc(N3CCS(=O)(=O)CC3)cc2)CC1 [Example 66, (1R,2R)-N-(1-cyanocyclopropyl)-2-(4-(4-(1,1-dioxidothiomorpholino)phenyl)-2-(3-(trifluoromethyl)phenyl)oxazol-5-yl)cyclohexanecarboxamide] | 454 | 1.21

Continued, values first:

IC50 (human cathepsin F) [nM] | IC50 (human cathepsin K) [nM] | SMILES
5310 | 2.31 | Cc1nc(-c2ccc(N3CCS(=O)(=O)CC3)cc2)c([C@@H]2CCCC[C@H]2C(=O)NC2(C#N)CC2)s1 [Example 54, (1R,2R)-N-(1-cyanocyclopropyl)-2-(4-(4-(1,1-dioxidothiomorpholino)phenyl)-2-methylthiazol-5-yl)cyclohexanecarboxamide]
628 | 0.46 | N#CC1(NC(=O)[C@@H]2CCCC[C@H]2c2oc(C(F)(F)F)nc2-c2ccc(N3CCS(=O)(=O)CC3)cc2)CC1 [Example 13, (1R,2R)-N-(1-cyanocyclopropyl)-2-(4-(4-(1,1-dioxidothiomorpholino)phenyl)-2-(trifluoromethyl)oxazol-5-yl)cyclohexanecarboxamide]
1320 | 1.99 | N#CC1(NC(=O)[C@@H]2CCCC[C@H]2c2oc(-c3cncc(F)c3)nc2-c2ccc(N3CCS(=O)(=O)CC3)cc2)CC1 [Example 33, (1R,2R)-N-(1-cyanocyclopropyl)-2-(4-(4-(1,1-dioxidothiomorpholino)phenyl)-2-(5-fluoropyridin-3-yl)oxazol-5-yl)cyclohexanecarboxamide]
≥ 10000 | 4.7 | N#CC1(NC(=O)[C@@H]2CCC(F)(F)C[C@H]2c2oc(C(F)(F)C(F)(F)F)nc2-c2ccc(N3CCS(=O)(=O)CC3)cc2)CC1 [Example 150, (1R,2R)-N-(1-cyanocyclopropyl)-2-(4-(4-(1,1-dioxidothiomorpholino)phenyl)-2-(perfluoroethyl)oxazol-5-yl)-4,4-difluorocyclohexane-carboxamide]
352 | 1.92 | N#CC1(NC(=O)[C@@H]2C[C@@H](F)CC[C@H]2c2oc(C(F)(F)F)nc2-c2ccc(N3CCS(=O)(=O)CC3)cc2)CC1 [Example 146, (1R,2R,5S)-N-(1-cyanocyclopropyl)-2-(4-(4-(1,1-dioxidothiomorpholino)phenyl)-2-(trifluoromethyl)oxazol-5-yl)-5-fluorocyclohexane-carboxamide]
81 | 0.54 | CC(C)(C)c1nc(-c2ccc(N3CCS(=O)(=O)CC3)cc2)c([C@@H]2CCC(F)(F)C[C@H]2C(=O)NC2(C#N)CC2)o1 [Example 19, (1R,2R)-2-(2-(tert-butyl)-4-(4-(1,1-dioxidothiomorpholino)phenyl)oxazol-5-yl)-N-(1-cyanocyclopropyl)-5,5-difluorocyclohexane-carboxamide]
71 | 0.28 | N#CC1(NC(=O)[C@@H]2CC(F)(F)CC[C@H]2c2oc(-c3ccc(F)cc3)nc2-c2ccc(N3CCS(=O)(=O)CC3)cc2)CC1 [Example 20, (1R,2R)-N-(1-cyanocyclopropyl)-2-(4-(4-(1,1-dioxidothiomorpholino)phenyl)-2-(4-fluorophenyl)oxazol-5-yl)-5,5-difluorocyclohexane-carboxamide]
666 | 1.02 | N#CC1(NC(=O)[C@@H]2CCCC[C@H]2c2oc(C(F)(F)C(F)(F)F)nc2-c2ccc(N3CCS(=O)(=O)CC3)cc2)CC1 [Example 3, (1R,2R)—N-(1-Cyanocyclopropyl)-2-(4-(4-(1,1-dioxidothiomorpholino)phenyl)-2-(perfluoroethyl)oxazol-5-yl)cyclohexanecarboxamide]
767 | 0.85 | N#CC1(NC(=O)[C@@H]2CCCC[C@H]2c2oc(C3CC4CC4C3)nc2-c2ccc(N3CCS(=O)(=O)CC3)cc2)CC1 (mixture of isomers) [Example 118, (1R,2R)-2-(2-((1R,3R,5S and 1R,3S,5S)-bicyclo[3.1.0]hexan-3-yl)-4-(4-(1,1-dioxidothiomorpholino)phenyl)oxazol-5-yl)-N-(1-cyanocyclopropyl) cyclohexanecarboxamide]
